What all share (assay): NCI-60 cell line screen, 48 h
The test system of assay [1] is A498 renal.
Assay [2] concerns CAKI-1 renal.
The subject of assay [3] is CCRF-CEM leukemia.
Assay [4] has as its system K-562 leukemia.
Assay [5] concerns KM12 colon.
For assay [6], the system named is MOLT-4 leukemia.
Assay [7] relates to OVCAR-8 ovarian.
The test system of assay [8] is SF-539 CNS.
The subject of assay [9] is SK-MEL-2 melanoma.
The test system of assay [10] is UACC-62 melanoma.

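Exposure lasted 48 hours, with cells grown in 96-well plates and compounds tested at five concentrations. Here, GI50 denotes the concentration required for 50% inhibition of growth. TGI denotes the concentration required for complete inhibition of growth.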 Bounds are passed on as bounds.

`COc1cc2c(cc1O)NC(=O)[C@@H]1C[C@@H](O)CN1C2=O`: the TGI in assay [1], in assay [2], in [3], in assay [4], in assay [5] and in [6] was above 100 µM throughout. The TGI in assay [7], in assay [8], in [9] and in assay [10] was above 100 µM throughout.

Regarding `COc1ccc(O[C@H](CO)C[C@@H]2COC(C)(C)O2)cc1`, the TGI in assay [1], in assay [2], in [3], in [4], in [5] and in assay [6] was above 100 µM each time. Further, the TGI in [7], in assay [8], in assay [9] and in assay [10] was above 100 µM throughout.

Consider `CCCCCCCCCCCC1=C(O)C(=O)C(CC2=C(O)C(=O)C(CCCCCCCCCCC)=C(O)C2=O)=C(O)C1=O`, for which the TGI in assay [1] is 98.2 µM; in assay [2] it was above 100 µM; in [3], 64.4 µM; in [4], above 100 µM; in assay [5] it was above 100 µM; in assay [6] it was above 100 µM. Besides, the TGI in assay [7], in [8], in assay [9] and in assay [10] was above 100 µM each time.

On to `O=C(Nc1cccc2ccccc12)c1cc2ccccc2oc1=O`, for which the TGI in assay [1], in assay [2], in assay [3], in [4], in assay [5] and in assay [6] was above 100 µM throughout. For the same molecule, the TGI in assay [7] is above 100 µM; in assay [8], 81.8 µM; in [9], above 100 µM; in [10], above 100 µM.

For the molecule `CCCCCCCCCCCCCCCCNc1nc(=O)n(C2OC(C)C(O)C2O)cc1F` (configuration not stated), the TGI in assay [1] is 39.1 µM; in assay [2], 41.8 µM; in [3], 42.6 µM; in assay [5] it was 36.3 µM; in assay [6], 62.2 µM; in assay [7], 52.6 µM. In addition, the TGI in assay [8] worked out at 33.5 µM; in assay [9], 38.9 µM; in assay [10] it was 29 µM.

Turning to `C/C(=N\NC(=S)NC(C)(C)C)c1nc2ncccc2[nH]1`, the TGI is above 100 µM in assay [1]; 16.4 µM in assay [2]; 35.1 µM in [3]; above 100 µM in [4]; above 100 µM in [5]; 23.7 µM in [6]. Further, the TGI is above 100 µM in assay [7], 13.6 µM in assay [8], above 80.3 µM in [9] and 46.7 µM in [10].

For the molecule `NC(=O)CSc1nc2ccccc2c(=O)n1N`, the TGI in assay [1], in [2], in assay [4], in assay [5], in assay [6] and in assay [7] was above 100 µM in each case. Moreover, the TGI in assay [8], in assay [9] and in [10] was above 100 µM each time.

Turning to `CN1C(c2ccccc2)CC(O)CC1c1ccccc1` (configuration not stated), the TGI in assay [1], in [2], in assay [3], in [4], in assay [5] and in assay [6] was above 100 µM throughout. For the same molecule, the TGI in [7], in [8], in assay [9] and in [10] was above 100 µM throughout.

For the molecule `O=C(Nc1ccc(-n2cc(-c3ccncc3)c(-c3ccc(O)c(Cl)c3)n2)cc1)Nc1cc(C(F)(F)F)cc(C(F)(F)F)c1`, the GI50 was 3.68 µM in assay [1]; 3.34 µM in [2]; 4.06 µM in assay [3]; 4.07 µM in assay [4]; 3.3 µM in assay [5]; 4.29 µM in assay [6]. Further, the GI50 in [7] was 3.44 µM; in assay [8] it was 3.81 µM; in assay [9], 2.2 µM; in [10] it was 3.02 µM. The TGI in [1] was 16.3 µM; in assay [2], 12.8 µM; in assay [3], 19.2 µM; in assay [4], 17.9 µM; in assay [5], 11.7 µM; in assay [6], 18.3 µM. Moreover, the TGI in [7] was 11.7 µM; in assay [8], 15.3 µM; in assay [9], 4.98 µM; in [10], 10.6 µM.

Take `CC[C@]1(c2ccc3c(c2)OCO3)C=[N+]([O-])O[C@H](OC2CCCC2(c2ccccc2)c2ccccc2)[C@@H]1OC(C)=O` (some centres not stated): the TGI in assay [1] is 2.94 µM; in assay [2], above 100 µM; in assay [3], above 64.6 µM; in assay [4], above 100 µM; in [5], 3.62 µM; in assay [6] it was above 19.8 µM. Further, the TGI is above 100 µM in assay [8], 5.73 µM in assay [9] and 4.64 µM in [10].

As for `COc1ccc(S(=O)(=O)NC(CCC(=O)NC(N)=O)C(=O)NC(N)=O)cc1` (configuration not stated), the TGI in [1], in assay [2], in assay [3], in assay [4], in assay [5] and in assay [6] was above 100 µM throughout. The TGI in [7], in [8], in [9] and in assay [10] was above 100 µM throughout.

Regarding `COc1cc2c(cc1OC)C1=C(C=O)c3ccc(OC)c(OC)c3C(O)N1CC2` (configuration not stated), the TGI in [1] is 72.5 µM; in assay [2], above 100 µM; in [3] it was above 100 µM; in [5], above 100 µM; in assay [6], above 100 µM; in assay [8] it was 64.8 µM. In addition, the values for the TGI in [9] and in assay [10] were 28.7 µM and 29.4 µM, respectively.

Consider `O=C1Nc2noc(=O)nc2NO1`, for which the TGI in assay [1], in assay [2], in [3], in assay [4], in assay [5] and in assay [6] was above 200 µM each time. Also, the TGI in [7], in assay [8], in assay [9] and in [10] was above 200 µM in each case.

Take `C/C(=N/NC(=S)Nc1ccc(C)cc1)c1ccccn1`: the TGI in assay [1] worked out at 15.9 µM; in assay [2] it was 13.9 µM; in assay [3] it was 4.64 µM; in assay [4], 6.09 µM; in assay [5] it was 15.5 µM; in assay [6], 2.53 µM. In addition, the TGI in assay [7] stood at 7.51 µM; in assay [8], 7.41 µM; in assay [9], 13.9 µM; in assay [10] it was 2.64 µM.

Turning to `CC(=O)O[C@H]1CC[C@@H](OC(C)=O)[C@H]2[C@H](O)[C@H](O)[C@@H]1n1c(=O)n(-c3ccccc3)c(=O)n12`, the TGI in assay [1], in assay [2], in [3], in [4], in [5] and in assay [6] was above 100 µM in each case. Also, the TGI in [7], in assay [8], in assay [9] and in assay [10] was above 100 µM throughout.

Turning to `Cn1c2c(c3c(=O)[nH]ncc31)Cc1ccccc1-2`, the TGI is 27.5 µM in [1]; above 100 µM in [2]; above 100 µM in [3]; above 100 µM in [4]; 66.8 µM in assay [5]; above 100 µM in assay [6]. The values for the TGI in assay [7], in assay [8] and in [9] were 62.8 µM, 78.7 µM and 41.8 µM, respectively.

`COC1=C(OC)C(=O)C(Cc2c(Cl)nc3sccn23)=C(C)C1=O`: the TGI in assay [1] was 28.5 µM; in [2], 45 µM; in assay [3], 5.44 µM; in [4], 34.1 µM; in [5], 22.3 µM; in assay [6], 4.17 µM. The TGI amounted to 26.2 µM in assay [7], 25 µM in assay [8], 38.7 µM in [9] and 20.6 µM in [10].

Take `CCCCCCCCCCCCOCC(COP(=O)(O)OCCN=[N+]=[N-])OC(=O)CCCCCCCCCCC` (configuration not stated): the TGI in [1], in assay [2], in assay [4], in assay [5], in [6] and in assay [7] was above 100 µM throughout. In addition, the TGI in assay [8], in [9] and in [10] was above 100 µM each time.

Consider `Clc1[nH]nc2ccccc12`, for which the TGI in [1], in assay [3], in [4], in assay [5], in assay [6] and in [7] was above 100 µM throughout. For the same molecule, the TGI in assay [8], in assay [9] and in assay [10] was above 100 µM each time.

For `CN(C)c1cccc2c(S(=O)(=O)NCCN)cccc12`, the TGI is 69.8 µM in assay [1]; above 100 µM in assay [2]; above 100 µM in assay [3]; above 100 µM in [4]; above 100 µM in assay [5]; above 100 µM in [6]. The TGI in assay [8], in assay [9] and in assay [10] was above 100 µM in each case.

`BrC1(c2ccccc2)C[n+]2c(-c3ccccc3)cc(-c3ccccc3)cc2-c2ccccc21` (configuration not stated): the TGI in assay [1] was 9.32 µM; in [2] it was 9.66 µM; in [3], 21.2 µM; in [4] it was 1.48 µM; in assay [5], 1.34 µM; in [6] it was 6.38 µM. The TGI in assay [7] stood at 6.37 µM; in assay [8], 11.4 µM; in assay [9], 1.08 µM.

`CCOC(=O)N1CCNCCN(C(=O)OCC)CCNCC1`: the TGI in [1], in [2], in assay [3], in assay [4], in assay [6] and in assay [7] was above 100 µM each time. For the same molecule, the TGI in assay [8], in assay [9] and in assay [10] was above 100 µM in each case.

With `Cc1nnc(SCc2nc(C#N)c(C#N)nc2CSc2nnc(C)s2)s1`, the TGI is above 66.5 µM in assay [1]; 11.6 µM in [2]; above 52.3 µM in assay [4]; 37 µM in assay [5]; 12.9 µM in assay [6]; above 100 µM in assay [7]. In addition, the TGI in assay [8] amounted to 40.9 µM; in assay [9], 63.4 µM; in [10] it was 30.7 µM.

As for `COc1ccc(/C(C=O)=C(\Cl)c2ccc(OC)c(OC)c2)cc1`, the TGI in assay [1], in [2], in assay [3], in assay [4], in assay [6] and in assay [7] was above 100 µM each time. In addition, the TGI in [8], in [9] and in [10] was above 100 µM in each case.

As to `NCCCNc1nc2ccccc2c2c(=O)c3cc(Cl)ccc3sc12`, the GI50 in assay [1] was 3.22 µM; in [2], 1.49 µM; in [8], 1.72 µM; in assay [9], 1.99 µM; in assay [10] it was 1.67 µM. Further, the TGI came out at 12.1 µM in assay [1]; 2.86 µM in assay [2]; 3.15 µM in assay [8]; 3.69 µM in assay [9]; 3.16 µM in assay [10].

As to `COC(=O)Nc1cc(OCCCOC(C)=O)c2[nH]c(C(=O)OC)cc2c1C[C@H](O)CO`, the TGI in assay [1], in assay [2], in assay [3], in [5], in [6] and in assay [7] was above 100 µM throughout. In addition, the TGI in [8], in assay [9] and in assay [10] was above 100 µM each time.

As for `C[n+]1c2ccccc2n2c3ccccc3c(NCCCn3ccnc3)c(C#N)c21`, the TGI in assay [1] was 46.5 µM; in assay [2], above 43.1 µM; in assay [4], above 26 µM; in [5], 17.7 µM; in assay [6], above 35.7 µM; in assay [7], 8.43 µM. In addition, the TGI was found to be 24.5 µM in assay [8], 4.71 µM in assay [9] and 17.6 µM in assay [10].

Turning to `C=CCOC(C)(C)C1=CCC(C)CC1` (configuration not stated), the TGI in assay [1], in assay [2], in [5], in assay [6], in [7] and in assay [8] was above 100 µM each time. Moreover, the TGI in assay [10] was above 100 µM.

These data come from PubChem BioAssay (NCI).
